Experimental data as given in paper PMC4457528, “Identification of Novel Small Molecule Inhibitors of Oncogenic RET Kinase” (PLoS ONE, 2015).
Read-outs that look alike come from different tables or passages of the source.

What was measured:
Experiment in all cases: KinomeScan kinase panel, single concentration 10 µM
Assay type in all cases: binding
KinomeScan kinase panel [1] = target: T1, KinomeScan kinase panel (Homo sapiens, UniProt P51451); conditions: BLK, 10 µM; read-out: score (%)
T1 construct: purchased DiscoveRx (KinomeScan)

KinomeScan kinase panel [2] = target: T2, KinomeScan kinase panel (Homo sapiens, UniProt Q02750); conditions: MEK1, 10 µM; read-out: score (%)
T2 construct: purchased DiscoveRx (KinomeScan)

KinomeScan kinase panel [3] = target: T3, KinomeScan kinase panel (Homo sapiens, UniProt O43318); conditions: read-out: score (%)
T3 construct: purchased DiscoveRx (KinomeScan)
T3 sequence (O43318 1-606): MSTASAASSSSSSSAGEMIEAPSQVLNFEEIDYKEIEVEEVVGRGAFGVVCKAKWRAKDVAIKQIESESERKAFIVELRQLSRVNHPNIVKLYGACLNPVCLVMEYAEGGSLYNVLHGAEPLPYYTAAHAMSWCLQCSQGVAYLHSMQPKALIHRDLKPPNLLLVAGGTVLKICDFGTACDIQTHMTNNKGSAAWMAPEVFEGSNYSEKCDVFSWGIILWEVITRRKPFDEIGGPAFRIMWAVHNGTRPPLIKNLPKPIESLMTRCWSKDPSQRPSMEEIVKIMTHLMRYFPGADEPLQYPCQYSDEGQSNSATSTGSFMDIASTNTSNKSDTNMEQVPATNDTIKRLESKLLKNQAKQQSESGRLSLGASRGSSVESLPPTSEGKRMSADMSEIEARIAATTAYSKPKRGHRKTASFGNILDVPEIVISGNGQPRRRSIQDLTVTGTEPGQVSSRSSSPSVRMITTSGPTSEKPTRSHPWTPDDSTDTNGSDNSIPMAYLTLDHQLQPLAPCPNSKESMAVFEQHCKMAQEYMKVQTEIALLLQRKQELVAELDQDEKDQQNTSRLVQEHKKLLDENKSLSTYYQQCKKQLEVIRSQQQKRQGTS

KinomeScan kinase panel [4] = target: T4, KinomeScan kinase panel (Homo sapiens, UniProt Q9H0K1); conditions: read-out: score (%)
T4 construct: purchased DiscoveRx (KinomeScan)

KinomeScan kinase panel [5] = target: T5, KinomeScan kinase panel (Homo sapiens, UniProt Q14012); conditions: CAMK1, 10 µM; read-out: score (%)
T5 construct: purchased DiscoveRx (KinomeScan)

KinomeScan kinase panel [6] = target: T6, KinomeScan kinase panel (Homo sapiens, UniProt P29323); conditions: EPHB2, 10 µM
T6 construct: purchased DiscoveRx (KinomeScan)
T6 sequence (P29323 19-1055): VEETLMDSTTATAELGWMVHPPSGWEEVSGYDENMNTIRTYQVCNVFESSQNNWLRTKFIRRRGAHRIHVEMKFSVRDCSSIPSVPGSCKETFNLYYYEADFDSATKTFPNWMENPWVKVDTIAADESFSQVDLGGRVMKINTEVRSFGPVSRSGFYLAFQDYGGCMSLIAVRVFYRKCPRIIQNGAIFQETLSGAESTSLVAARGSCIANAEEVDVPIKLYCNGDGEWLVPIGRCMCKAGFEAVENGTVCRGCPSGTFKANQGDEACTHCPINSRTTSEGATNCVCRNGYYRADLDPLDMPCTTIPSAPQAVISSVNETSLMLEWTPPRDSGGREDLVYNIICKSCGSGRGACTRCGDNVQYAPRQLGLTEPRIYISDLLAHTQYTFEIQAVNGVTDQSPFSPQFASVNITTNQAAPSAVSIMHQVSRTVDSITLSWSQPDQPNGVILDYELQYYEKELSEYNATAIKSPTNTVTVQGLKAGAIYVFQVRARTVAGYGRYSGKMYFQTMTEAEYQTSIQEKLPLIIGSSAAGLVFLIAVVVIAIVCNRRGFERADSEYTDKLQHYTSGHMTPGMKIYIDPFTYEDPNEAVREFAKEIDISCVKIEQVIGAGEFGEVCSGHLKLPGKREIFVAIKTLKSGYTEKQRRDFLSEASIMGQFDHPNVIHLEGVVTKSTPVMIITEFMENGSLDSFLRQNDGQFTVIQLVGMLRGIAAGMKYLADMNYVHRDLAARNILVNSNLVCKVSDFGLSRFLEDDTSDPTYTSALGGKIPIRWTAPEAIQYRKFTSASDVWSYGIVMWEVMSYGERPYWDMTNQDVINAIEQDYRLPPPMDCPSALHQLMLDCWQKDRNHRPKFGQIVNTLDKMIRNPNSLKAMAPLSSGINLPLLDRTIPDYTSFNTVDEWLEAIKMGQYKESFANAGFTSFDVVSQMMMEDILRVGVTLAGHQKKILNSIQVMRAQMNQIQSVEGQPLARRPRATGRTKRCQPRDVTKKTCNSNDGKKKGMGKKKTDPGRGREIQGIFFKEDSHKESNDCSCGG

KinomeScan kinase panel [7] = target: T7, KinomeScan kinase panel (Homo sapiens, UniProt Q15759); conditions: p38-beta, 10 µM; read-out: score (%)
T7 construct: purchased DiscoveRx (KinomeScan)

KinomeScan kinase panel [8] = target: T8, KinomeScan kinase panel (Homo sapiens, UniProt P10721); conditions: KIT, 10 µM; read-out: score (%)
T8 construct: purchased DiscoveRx (KinomeScan)

KinomeScan kinase panel [9] = target: T9, KinomeScan kinase panel (Homo sapiens, UniProt P22694); conditions: PKAC-beta, 10 µM; read-out: score (%)
T9 construct: purchased DiscoveRx (KinomeScan)

KinomeScan kinase panel [10] = target: T10, KinomeScan kinase panel (Homo sapiens, UniProt P04629); conditions: 10 µM, read-out: score (%)
T10 construct: purchased DiscoveRx (KinomeScan)

KinomeScan kinase panel [11] = target: T11, KinomeScan kinase panel (Homo sapiens, UniProt P15056); conditions: BRAF, 10 µM; read-out: score (%)
T11 construct: purchased DiscoveRx (KinomeScan)

KinomeScan kinase panel [12] = target: T12, KinomeScan kinase panel (Homo sapiens, UniProt Q92772); conditions: CDKL2, 10 µM; read-out: score (%)
T12 construct: purchased DiscoveRx (KinomeScan)
T12 sequence (Q92772 1-493): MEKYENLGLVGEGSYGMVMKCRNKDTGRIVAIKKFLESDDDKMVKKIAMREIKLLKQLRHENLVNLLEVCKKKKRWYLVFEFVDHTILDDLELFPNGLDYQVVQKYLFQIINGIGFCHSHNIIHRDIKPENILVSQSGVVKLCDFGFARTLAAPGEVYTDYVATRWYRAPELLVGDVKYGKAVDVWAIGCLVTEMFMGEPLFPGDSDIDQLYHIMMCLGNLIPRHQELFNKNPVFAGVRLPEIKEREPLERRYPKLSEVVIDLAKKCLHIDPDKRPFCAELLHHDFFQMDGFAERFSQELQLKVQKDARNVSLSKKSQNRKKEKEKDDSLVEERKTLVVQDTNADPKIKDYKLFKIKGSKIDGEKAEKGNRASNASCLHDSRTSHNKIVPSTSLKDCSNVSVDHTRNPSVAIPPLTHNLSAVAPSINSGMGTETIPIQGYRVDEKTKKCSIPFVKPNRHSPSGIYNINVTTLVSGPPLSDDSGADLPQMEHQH

T5 sequence (Q14012 whole entry): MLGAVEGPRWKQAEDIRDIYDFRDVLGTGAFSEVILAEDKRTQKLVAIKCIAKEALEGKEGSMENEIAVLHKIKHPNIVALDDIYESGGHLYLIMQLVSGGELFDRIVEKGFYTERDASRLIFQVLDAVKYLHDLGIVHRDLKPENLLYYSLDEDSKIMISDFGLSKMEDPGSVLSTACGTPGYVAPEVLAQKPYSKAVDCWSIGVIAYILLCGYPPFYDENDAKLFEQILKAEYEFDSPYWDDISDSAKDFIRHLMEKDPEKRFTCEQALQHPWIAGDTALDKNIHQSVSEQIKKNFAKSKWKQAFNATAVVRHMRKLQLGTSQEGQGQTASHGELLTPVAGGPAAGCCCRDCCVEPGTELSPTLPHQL
T2 sequence (Q02750 whole entry): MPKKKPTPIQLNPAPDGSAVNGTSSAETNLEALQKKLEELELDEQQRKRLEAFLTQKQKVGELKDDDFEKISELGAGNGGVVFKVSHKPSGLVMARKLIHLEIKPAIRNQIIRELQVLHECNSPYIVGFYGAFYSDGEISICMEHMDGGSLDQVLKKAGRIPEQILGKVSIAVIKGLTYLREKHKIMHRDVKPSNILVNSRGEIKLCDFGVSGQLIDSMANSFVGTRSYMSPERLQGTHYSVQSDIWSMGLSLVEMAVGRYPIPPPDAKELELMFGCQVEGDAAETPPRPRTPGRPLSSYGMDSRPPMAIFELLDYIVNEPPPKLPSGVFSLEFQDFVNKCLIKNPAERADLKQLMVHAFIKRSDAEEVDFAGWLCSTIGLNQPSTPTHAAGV
T10 sequence (P04629 33-796): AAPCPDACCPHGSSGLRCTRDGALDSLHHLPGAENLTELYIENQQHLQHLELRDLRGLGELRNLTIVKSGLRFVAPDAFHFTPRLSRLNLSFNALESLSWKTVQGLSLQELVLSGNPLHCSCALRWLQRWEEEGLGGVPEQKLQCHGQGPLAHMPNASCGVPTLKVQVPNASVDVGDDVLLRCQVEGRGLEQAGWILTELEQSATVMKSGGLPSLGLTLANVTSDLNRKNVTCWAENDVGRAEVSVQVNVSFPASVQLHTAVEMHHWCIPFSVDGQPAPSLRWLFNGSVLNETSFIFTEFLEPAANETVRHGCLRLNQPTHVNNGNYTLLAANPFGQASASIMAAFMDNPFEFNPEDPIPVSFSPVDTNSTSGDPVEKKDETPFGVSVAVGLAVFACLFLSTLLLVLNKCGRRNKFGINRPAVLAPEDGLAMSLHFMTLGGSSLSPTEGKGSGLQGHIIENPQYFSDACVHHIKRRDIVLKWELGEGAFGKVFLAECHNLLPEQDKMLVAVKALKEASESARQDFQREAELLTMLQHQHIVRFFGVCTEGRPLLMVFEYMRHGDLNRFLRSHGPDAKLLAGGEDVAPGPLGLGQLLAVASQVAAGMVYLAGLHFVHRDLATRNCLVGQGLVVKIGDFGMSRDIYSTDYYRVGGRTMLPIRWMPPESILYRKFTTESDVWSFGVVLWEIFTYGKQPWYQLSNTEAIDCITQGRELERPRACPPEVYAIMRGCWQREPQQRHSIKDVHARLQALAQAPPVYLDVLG
T4 sequence (Q9H0K1 whole entry): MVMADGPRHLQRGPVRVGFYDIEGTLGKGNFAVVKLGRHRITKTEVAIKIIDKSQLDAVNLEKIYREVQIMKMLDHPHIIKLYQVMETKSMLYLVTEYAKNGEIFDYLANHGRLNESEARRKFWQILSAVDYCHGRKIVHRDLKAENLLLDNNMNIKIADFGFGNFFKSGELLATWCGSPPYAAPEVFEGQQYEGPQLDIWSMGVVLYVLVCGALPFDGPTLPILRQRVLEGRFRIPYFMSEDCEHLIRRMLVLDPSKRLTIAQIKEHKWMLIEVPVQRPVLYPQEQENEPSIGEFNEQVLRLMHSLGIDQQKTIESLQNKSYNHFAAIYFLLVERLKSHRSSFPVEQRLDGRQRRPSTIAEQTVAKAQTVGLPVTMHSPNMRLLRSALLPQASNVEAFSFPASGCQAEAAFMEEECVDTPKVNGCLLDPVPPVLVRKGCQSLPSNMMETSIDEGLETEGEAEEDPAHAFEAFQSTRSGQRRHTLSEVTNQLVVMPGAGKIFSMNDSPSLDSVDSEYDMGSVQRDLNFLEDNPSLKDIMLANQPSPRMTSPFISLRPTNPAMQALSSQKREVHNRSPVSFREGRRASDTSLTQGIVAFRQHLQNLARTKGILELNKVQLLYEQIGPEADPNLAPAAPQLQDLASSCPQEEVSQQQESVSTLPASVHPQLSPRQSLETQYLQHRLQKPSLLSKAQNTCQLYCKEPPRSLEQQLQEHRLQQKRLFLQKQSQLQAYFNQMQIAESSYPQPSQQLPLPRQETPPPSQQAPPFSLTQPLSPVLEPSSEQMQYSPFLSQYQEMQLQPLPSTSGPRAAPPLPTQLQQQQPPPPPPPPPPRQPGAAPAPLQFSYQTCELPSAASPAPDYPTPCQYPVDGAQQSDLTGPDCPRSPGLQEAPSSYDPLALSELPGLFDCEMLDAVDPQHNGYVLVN
T11 sequence (P15056 whole entry): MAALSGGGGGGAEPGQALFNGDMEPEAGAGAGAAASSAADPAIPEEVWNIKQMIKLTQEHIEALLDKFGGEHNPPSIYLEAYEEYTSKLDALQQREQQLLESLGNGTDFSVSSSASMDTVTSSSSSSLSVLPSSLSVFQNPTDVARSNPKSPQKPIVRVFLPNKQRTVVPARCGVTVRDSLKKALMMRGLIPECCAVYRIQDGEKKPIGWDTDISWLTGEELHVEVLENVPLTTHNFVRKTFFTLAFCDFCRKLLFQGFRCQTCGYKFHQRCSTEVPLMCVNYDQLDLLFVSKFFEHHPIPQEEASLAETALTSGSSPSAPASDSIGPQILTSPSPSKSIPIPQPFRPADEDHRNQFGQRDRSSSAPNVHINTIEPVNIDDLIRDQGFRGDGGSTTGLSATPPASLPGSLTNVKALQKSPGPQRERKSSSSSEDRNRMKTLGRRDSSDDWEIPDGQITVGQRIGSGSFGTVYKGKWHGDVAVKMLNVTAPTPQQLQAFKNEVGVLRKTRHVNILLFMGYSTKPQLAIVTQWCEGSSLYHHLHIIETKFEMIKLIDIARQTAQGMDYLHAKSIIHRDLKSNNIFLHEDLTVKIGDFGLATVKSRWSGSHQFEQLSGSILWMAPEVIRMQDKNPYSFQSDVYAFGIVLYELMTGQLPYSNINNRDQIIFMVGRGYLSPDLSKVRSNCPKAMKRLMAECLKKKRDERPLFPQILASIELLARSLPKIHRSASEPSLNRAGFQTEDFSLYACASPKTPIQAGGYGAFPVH
T7 sequence (Q15759 whole entry): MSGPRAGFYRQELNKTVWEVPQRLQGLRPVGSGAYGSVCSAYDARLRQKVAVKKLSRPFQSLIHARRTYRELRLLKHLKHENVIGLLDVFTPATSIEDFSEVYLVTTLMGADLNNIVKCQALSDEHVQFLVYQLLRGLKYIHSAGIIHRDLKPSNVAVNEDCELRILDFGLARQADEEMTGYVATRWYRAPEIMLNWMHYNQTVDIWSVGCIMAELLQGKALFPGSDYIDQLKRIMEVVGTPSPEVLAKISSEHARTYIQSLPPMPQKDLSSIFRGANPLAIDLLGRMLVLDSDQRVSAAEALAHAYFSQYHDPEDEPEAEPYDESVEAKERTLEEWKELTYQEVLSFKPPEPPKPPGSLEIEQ
T8 sequence (P10721 26-976): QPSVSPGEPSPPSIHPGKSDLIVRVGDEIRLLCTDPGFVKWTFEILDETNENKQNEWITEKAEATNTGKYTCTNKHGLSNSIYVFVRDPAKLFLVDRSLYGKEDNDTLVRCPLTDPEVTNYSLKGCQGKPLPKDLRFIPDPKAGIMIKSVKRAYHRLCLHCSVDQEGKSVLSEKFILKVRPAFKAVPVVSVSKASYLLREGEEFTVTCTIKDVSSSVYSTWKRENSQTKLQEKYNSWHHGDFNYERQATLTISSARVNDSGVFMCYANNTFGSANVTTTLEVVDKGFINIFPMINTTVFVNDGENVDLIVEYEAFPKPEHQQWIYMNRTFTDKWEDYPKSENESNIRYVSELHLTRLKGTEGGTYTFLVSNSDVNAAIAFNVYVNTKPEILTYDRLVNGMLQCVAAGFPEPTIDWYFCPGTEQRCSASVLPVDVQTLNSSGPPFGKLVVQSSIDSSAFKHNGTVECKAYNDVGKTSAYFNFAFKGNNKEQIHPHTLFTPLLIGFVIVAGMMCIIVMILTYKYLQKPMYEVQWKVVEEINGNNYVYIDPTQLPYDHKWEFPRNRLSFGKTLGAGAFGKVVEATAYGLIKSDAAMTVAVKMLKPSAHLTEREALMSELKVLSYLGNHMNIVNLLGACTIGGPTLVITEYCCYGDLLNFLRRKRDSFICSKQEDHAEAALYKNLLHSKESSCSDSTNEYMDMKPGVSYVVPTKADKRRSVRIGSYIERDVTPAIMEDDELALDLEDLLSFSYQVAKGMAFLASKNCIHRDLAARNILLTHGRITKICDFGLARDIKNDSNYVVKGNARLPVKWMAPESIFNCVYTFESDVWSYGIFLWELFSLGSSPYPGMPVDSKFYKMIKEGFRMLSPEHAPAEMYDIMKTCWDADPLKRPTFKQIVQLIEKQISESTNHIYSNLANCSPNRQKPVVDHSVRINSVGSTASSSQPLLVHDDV
T1 sequence (P51451 whole entry): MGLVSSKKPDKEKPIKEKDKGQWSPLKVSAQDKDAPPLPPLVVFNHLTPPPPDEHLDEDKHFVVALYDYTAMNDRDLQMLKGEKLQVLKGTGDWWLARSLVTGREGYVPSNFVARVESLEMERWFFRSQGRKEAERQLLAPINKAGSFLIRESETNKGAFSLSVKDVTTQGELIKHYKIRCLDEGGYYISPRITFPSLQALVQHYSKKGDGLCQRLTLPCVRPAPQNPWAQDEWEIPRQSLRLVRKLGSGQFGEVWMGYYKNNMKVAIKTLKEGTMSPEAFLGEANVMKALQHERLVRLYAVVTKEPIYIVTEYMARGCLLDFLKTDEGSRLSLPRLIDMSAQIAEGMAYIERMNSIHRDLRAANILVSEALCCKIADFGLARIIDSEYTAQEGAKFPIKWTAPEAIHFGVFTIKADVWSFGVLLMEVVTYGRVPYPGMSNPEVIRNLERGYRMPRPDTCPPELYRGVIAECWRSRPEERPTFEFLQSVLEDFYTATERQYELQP

Row | Compound | remaining binding at 10 µM (KinomeScan kinase panel [1]) [%] | remaining binding at 10 µM (KinomeScan kinase panel [2]) [%] | remaining binding at 10 µM (KinomeScan kinase panel [3]; kinase TAK1, 10 µM) [%] | remaining binding at 10 µM (KinomeScan kinase panel [4]; kinase SIK2, 10 µM) [%] | remaining binding at 10 µM (KinomeScan kinase panel [5]) [%] | score (%) (KinomeScan kinase panel [6]) | remaining binding at 10 µM (KinomeScan kinase panel [7]) [%] | remaining binding at 10 µM (KinomeScan kinase panel [8]) [%] | remaining binding at 10 µM (KinomeScan kinase panel [9]) [%] | remaining binding at 10 µM (KinomeScan kinase panel [10]; kinase TRKA) [%] | remaining binding at 10 µM (KinomeScan kinase panel [11]) [%] | remaining binding at 10 µM (KinomeScan kinase panel [12]) [%] | remaining binding at 10 µM (KinomeScan kinase panel [3]; TAK1, 10 µM) [%] | remaining binding at 10 µM (KinomeScan kinase panel [4]; SNF1LK2, 10 µM) [%] | remaining binding at 10 µM (KinomeScan kinase panel [10]; TRKA) [%]
1 | CCN1CCN(Cc2ccc(NC(=O)c3ccc(C)c(NC(=O)c4cncc(-c5cccs5)c4)c3)cc2C(F)(F)F)CC1 [ALW-II-41-27] | 0.1 | > 30 | 0 | 13 | > 30 | 0 | 0 | 0 | 8 | 4.4 | 1.8 | 9.1 | – | – | –
2 | CCN1CCN(Cc2ccc(NC(=O)c3ccc(C)c(/C=C/c4cnc5[nH]ccc5c4Cl)c3)cc2C(F)(F)F)CC1 [HG-6-63-01, (E)-3-(2-(4-chloro-1H-pyrrolo[2,3-b]pyridin-5-yl)vinyl)-N-(4-((4-ethylpiperazin-1-yl)methyl)-3-(trifluoromethyl)phenyl)-4-methylbenzamide] | 0.2 | > 30 | – | – | > 30 | 1.1 | 0 | 0 | > 30 | – | 1.2 | 0.5 | 0.1 | 6.4 | 8.2
3 | CCN1CCN(Cc2ccc(NC(=O)c3ccc(C)c(C#Cc4cccnc4)c3)cc2C(F)(F)F)CC1 [XMD15-44] | 0 | > 30 | 0.2 | 21 | > 30 | 0.1 | 0 | 0 | 4.1 | 0.35 | 0.05 | 1.4 | – | – | –
